pIC50: −log10 of the molar value.

The target in assay [1] is Coagulation factor XI (Homo sapiens, UniProt P03951). Briefly: Inhibition of factor 11a.
Assay [2] has as its target Prothrombin (Homo sapiens, UniProt P00734). Briefly: Inhibition of thrombin.
Assay [3] has as its target Coagulation factor X (Homo sapiens, UniProt P00742). Briefly: Inhibition of factor 10a.

Coagulation factor X, sequence (P00742 41-179 limits assumed): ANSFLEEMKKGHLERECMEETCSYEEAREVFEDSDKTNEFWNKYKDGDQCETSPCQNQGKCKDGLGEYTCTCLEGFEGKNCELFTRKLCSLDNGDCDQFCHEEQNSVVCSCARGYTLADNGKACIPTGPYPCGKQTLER
Coagulation factor X, sequence (P00742 235-488 limits assumed): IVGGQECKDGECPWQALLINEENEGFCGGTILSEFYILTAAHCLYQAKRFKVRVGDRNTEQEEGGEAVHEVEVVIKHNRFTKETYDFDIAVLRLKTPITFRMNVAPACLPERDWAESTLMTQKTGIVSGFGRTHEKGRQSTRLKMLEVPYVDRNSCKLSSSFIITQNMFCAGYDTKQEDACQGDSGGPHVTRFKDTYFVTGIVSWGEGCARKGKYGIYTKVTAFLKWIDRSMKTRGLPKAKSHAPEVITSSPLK
Coagulation factor XI, sequence (P03951 19-387 limits assumed): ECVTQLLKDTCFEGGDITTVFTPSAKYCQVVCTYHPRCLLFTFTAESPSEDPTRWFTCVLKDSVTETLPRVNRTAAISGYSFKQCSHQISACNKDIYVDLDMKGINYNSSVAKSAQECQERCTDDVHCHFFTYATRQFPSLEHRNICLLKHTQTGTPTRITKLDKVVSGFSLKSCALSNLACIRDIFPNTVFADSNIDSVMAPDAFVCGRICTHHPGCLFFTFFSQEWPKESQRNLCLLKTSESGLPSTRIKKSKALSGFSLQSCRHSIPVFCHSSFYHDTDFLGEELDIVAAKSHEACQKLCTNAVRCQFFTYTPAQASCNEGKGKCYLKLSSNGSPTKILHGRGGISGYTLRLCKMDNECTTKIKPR
Coagulation factor XI, sequence (P03951 388-625 limits assumed): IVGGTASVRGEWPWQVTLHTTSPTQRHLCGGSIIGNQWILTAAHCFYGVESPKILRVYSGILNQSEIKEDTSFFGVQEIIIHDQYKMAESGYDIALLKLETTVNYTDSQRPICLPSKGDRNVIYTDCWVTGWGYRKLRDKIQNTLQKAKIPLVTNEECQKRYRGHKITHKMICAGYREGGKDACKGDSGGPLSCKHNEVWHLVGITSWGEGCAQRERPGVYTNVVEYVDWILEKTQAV

The pIC50 is the IC50 on a negative log10 scale, so that one unit is a factor of ten. The low end stands for a large IC50, the high end for a small IC50. As for `CC(C)C[C@H](NC(=O)NCc1ccc(Cl)c(Cl)c1)C(=O)N[C@H](C(=O)N[C@@H](CCCN=C(N)N)C(=O)c1nccs1)C(C)C`, the pIC50 in assay [1] is 7.20; in assay [2], 6.06; in assay [3], below 4.70.

In the case of `CC(C)C[C@H](NC(=O)NCc1ccc(Cl)c(Cl)c1)C(=O)N[C@@H](C)C(=O)N[C@@H](CCCNC(=N)N)C(=O)c1nccs1`, the pIC50 in assay [1] was 6.04; in assay [2], 5.00; in assay [3], 4.66.

For the molecule `CC(C)C[C@H](NC(=O)NCc1ccc(F)cc1)C(=O)N[C@H](C(=O)N[C@@H](CCCNC(=N)N)C(=O)c1nccs1)C(C)C`, the values for the pIC50 in assay [1], in assay [2] and in assay [3] were 6.94, 5.51 and below 4.70, respectively.

For the molecule `CC(C)C[C@H](NC(=O)NCc1ccc(Cl)cc1Cl)C(=O)N[C@H](C(=O)N[C@@H](CCCN=C(N)N)C(=O)c1nccs1)C(C)C`, the pIC50 was 7.35 in assay [1], 6.41 in assay [2] and 4.89 in assay [3].

Consider `CCC(C)[C@H](NC(=O)[C@H](CC(C)C)NC(=O)NCc1ccc(Cl)c(Cl)c1)C(=O)N[C@@H](CCCN=C(N)N)C(=O)c1nccs1` (some centres not stated), for which the pIC50 in assay [1] was 7.12; in assay [2] it was 5.59; in assay [3], 4.07.

In the case of `CC(C)[C@H](NC(=O)[C@H](Cc1ccccc1)NNC(=O)NCc1ccc(F)cc1)C(=O)N[C@@H](CCCNC(=N)N)C(=O)c1nccs1`, the pIC50 in assay [1] is 6.80; in assay [2], 5.37.

Regarding `CC(C)[C@H](NC(=O)[C@H](CCCN=C(N)N)NC(=O)N[C@H](C)c1ccc(Br)cc1)C(=O)N[C@@H](CCCN=C(N)N)C(=O)c1nccs1`, the figures for the pIC50 in assay [1], in assay [2] and in assay [3] were 8.15, 6.36 and 6.60, respectively.

As to `CC(C)[C@H](NC(=O)[C@H](Cc1cccnc1)NC(=O)N[C@H](C)c1ccc(F)cc1)C(=O)N[C@@H](CCCN=C(N)N)C(=O)c1nccs1`, the pIC50 in assay [1] was 7.55; in assay [2], 6.28.

As to `CC(=O)N[C@@H](CC(C)C)C(=O)N[C@H](C(=O)N[C@@H](CCCN=C(N)N)C(=O)c1nccs1)C(C)C`, the pIC50 in assay [2] and in assay [3] was below 3.70 throughout.

Turning to `CC(C)[C@H](NC(=O)[C@H](Cc1ccccc1)NNS(=O)(=O)c1ccc(Cl)c(Cl)c1)C(=O)N[C@@H](CCCNC(=N)N)C(=O)c1nccs1`, the pIC50 in assay [1] is 5.64.

`CC(C)[C@H](NC(=O)[C@H](Cc1cccnc1)NC(=O)N[C@@H](C)c1ccc(F)cc1)C(=O)N[C@@H](CCCNC(=N)N)C(=O)c1nccs1`: the pIC50 in assay [1] is 6.27; in assay [2] it was 6.22.

For the molecule `CC(C)C[C@H](NC(=O)NCc1ccc(Cl)c(Cl)c1)C(=O)N[C@@H](Cc1ccc(O)cc1)C(=O)N[C@@H](CCCNC(=N)N)C(=O)c1nccs1`, the negative-log IC50 (pIC50) in assay [1] is 6.70; in assay [2], 6.00; in assay [3] it was 5.77.

Regarding `CC(C)C[C@H](NC(=O)NCc1ccc(Cl)c(Cl)c1)C(=O)N[C@@H](Cc1ccccc1)C(=O)N[C@@H](CCCN=C(N)N)C(=O)c1nccs1`, the pIC50 in assay [1] was 6.15; in assay [2] it was 4.57; in assay [3], 5.07.

In the case of `CC(C)[C@H](NC(=O)[C@H](Cc1ccccc1)NNC(=O)Nc1ccccc1)C(=O)N[C@@H](CCCNC(=N)N)C(=O)c1nccs1`, the pIC50 in assay [1] is 5.72; in assay [2], 6.03; in assay [3], below 4.70.

On to `CC(C)[C@H](NC(=O)[C@H](Cc1c[nH]c2ccccc12)NC(=O)N[C@H](C)c1ccc(Br)cc1)C(=O)N[C@@H](CCCNC(=N)N)C(=O)c1nccs1`, for which the values for the pIC50 in assay [1], in assay [2] and in assay [3] were 7.54, 6.15 and 5.68, respectively.

Take `CC(C)[C@H](NC(=O)[C@H](Cc1ccccc1)NNC(=O)Cc1ccco1)C(=O)N[C@@H](CCCNC(=N)N)C(=O)c1nccs1`: the pIC50 in assay [1] was 5.59.

On to `CC(C)[C@H](NC(=O)[C@H](Cc1ccccc1)NNC(=O)c1ccco1)C(=O)N[C@@H](CCCNC(=N)N)C(=O)c1nccs1`, for which the pIC50 in assay [1] is 5.66.

Consider `CC(C)C[C@H](NC(=O)OCc1ccccc1)C(=O)N[C@H](C(=O)N[C@@H](CCCN=C(N)N)C(=O)c1nccs1)C(C)C`, for which, in assay [1], the pIC50 was 6.45. Against the preceding molecule, the pIC50 is 0.79 log units higher.

(Values after ChEMBL document CHEMBL1138224, “Design, synthesis, and biological evaluation of peptidomimetic inhibitors of factor XIa as novel anticoagulants” (J Med Chem, 2006).)
